Assay results published in patent US9376429B2, “Sodium channel blockers, preparation method thereof and use thereof” (Daewoong Pharmaceutical Co., Ltd., priority 2012, dated 2016).

These compounds were tested against T1, sodium ion channel (Nav1.7) (Homo sapiens, UniProt Q15858) (assay: Blocking effect against sodium ion channel (Nav1.7), IonFlux16 auto patch clamp, hNav1.7 HEK293 cells). Details: peak current after 50 seconds treatment, eight concentrations.
T1 construct: host or cells: HEK293
Assay type: cell-based
Outline: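 HEK293 cells stably expressing human Nav1.7 were recorded by IonFlux16 automated patch clamp in extracellular solution (pH 7.45, final DMSO ≤0.3%). Peak current was measured after 50 s exposure to each of eight compound concentrations and expressed as percent inhibition relative to pre-compound current.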

T1 sequence (Q15858 whole entry): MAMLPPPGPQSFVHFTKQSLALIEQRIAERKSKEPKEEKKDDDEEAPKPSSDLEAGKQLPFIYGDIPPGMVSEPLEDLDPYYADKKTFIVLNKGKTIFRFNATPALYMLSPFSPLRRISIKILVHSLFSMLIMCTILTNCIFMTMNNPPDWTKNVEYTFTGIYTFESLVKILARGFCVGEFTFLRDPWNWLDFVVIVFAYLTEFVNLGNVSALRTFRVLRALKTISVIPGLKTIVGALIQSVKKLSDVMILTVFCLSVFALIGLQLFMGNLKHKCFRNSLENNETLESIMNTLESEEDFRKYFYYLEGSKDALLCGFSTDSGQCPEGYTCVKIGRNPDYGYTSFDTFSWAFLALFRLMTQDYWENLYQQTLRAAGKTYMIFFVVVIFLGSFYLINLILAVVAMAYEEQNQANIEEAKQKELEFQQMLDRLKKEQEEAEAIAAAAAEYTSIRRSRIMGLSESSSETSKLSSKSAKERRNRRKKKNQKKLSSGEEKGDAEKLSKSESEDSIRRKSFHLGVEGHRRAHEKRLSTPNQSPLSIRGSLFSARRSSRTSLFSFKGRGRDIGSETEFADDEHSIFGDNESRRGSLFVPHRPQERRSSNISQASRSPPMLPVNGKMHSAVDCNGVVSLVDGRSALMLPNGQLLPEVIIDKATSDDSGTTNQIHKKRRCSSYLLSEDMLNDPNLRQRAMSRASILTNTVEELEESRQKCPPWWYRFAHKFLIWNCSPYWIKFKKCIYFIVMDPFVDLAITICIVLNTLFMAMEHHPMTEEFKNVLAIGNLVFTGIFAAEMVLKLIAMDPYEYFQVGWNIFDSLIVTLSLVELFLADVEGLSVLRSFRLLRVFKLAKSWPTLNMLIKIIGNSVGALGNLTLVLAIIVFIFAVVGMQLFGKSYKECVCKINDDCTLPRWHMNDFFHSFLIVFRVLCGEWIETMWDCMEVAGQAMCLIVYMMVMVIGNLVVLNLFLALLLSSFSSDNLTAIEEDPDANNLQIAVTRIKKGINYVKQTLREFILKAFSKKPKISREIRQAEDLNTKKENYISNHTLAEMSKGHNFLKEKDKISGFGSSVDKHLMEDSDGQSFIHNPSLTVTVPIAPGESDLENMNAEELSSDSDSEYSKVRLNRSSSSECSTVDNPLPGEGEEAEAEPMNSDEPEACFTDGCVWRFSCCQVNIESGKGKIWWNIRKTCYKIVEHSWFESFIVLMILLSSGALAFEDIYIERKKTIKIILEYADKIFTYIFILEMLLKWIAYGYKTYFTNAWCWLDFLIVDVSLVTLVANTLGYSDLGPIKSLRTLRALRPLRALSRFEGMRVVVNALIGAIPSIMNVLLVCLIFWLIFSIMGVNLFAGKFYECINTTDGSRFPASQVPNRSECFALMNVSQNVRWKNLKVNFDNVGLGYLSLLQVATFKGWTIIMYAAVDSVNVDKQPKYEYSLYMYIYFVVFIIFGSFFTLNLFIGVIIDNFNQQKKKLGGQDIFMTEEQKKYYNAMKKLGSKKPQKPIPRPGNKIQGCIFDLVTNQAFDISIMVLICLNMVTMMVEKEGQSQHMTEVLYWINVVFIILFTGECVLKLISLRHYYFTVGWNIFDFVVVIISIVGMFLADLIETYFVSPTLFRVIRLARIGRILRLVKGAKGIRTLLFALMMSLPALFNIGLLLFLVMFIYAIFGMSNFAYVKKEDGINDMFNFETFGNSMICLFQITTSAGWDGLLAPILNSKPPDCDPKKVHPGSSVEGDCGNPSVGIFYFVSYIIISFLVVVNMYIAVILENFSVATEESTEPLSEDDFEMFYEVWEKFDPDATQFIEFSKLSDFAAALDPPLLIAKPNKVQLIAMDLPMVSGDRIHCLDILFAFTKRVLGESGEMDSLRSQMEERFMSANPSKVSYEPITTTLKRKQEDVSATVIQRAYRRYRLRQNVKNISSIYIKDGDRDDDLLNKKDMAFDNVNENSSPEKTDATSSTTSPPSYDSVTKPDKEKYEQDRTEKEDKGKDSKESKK

O=S(=O)(Nc1cscn1)c1cc(F)c(Oc2cnc(-c3ccc(C(F)(F)F)c(F)c3)cc2-c2cncnc2)cc1F [Example 97, 2,5-difluoro-4-((6-(3-fluoro-4-(trifluoromethyl)phenyl)-4-(pyrimidin-5-yl)pyridin-3-yl)oxy)-N-(thiazol-4-yl)benzenesulfonamide] and N#Cc1cc(S(=O)(=O)Nc2cscn2)ccc1Oc1cnc(-c2ccc(C(F)(F)F)c(F)c2)cc1-c1cncnc1 [Example 94, 3-cyano-4-((6-(3-fluoro-4-(trifluoromethyl)phenyl)-4-(pyrimidin-5-yl)pyridin-3-yl)oxy)-N-(thiazol-4-yl)benzenesulfonamide] cannot be ordered by IC50: > 100 nM for the first, > 100 nM for the second.

O=S(=O)(Nc1cscn1)c1cc(Cl)c(Oc2cnc(-c3ccc(F)c(F)c3)cc2-c2cn[nH]c2)cc1F [Example 98, 5-chloro-4-((6-(3,4-difluorophenyl)-4-(1H-pyrazol-4-yl)pyridin-3-yl)oxy)-2-fluoro-N-(thiazol-4-yl)benzenesulfonamide] and O=S(=O)(Nc1cscn1)c1cc(Cl)c(Oc2cnc(-c3cccc(F)c3)cc2-c2cn[nH]c2)cc1F [Example 78, 5-chloro-2-fluoro-4-((6-(3-fluorophenyl)-4-(1H-pyrazol-4-yl)pyridin-3-yl)oxy)-N-(thiazol-4-yl)benzenesulfonamide] cannot be ordered by IC50: > 100 nM for the first, > 100 nM for the second.

N#Cc1cc(S(=O)(=O)Nc2nccs2)ccc1Oc1cnc(-c2ccc(F)cc2)cc1-c1ccoc1 [Example 7, 3-cyano-4-(6-(4-fluorophenyl)-4-(furan-3-yl)pyridin-3-yloxy)-N-(thiazol-2-yl)benzenesulfonamide] and N#Cc1cc(S(=O)(=O)Nc2nccs2)ccc1Oc1cnc(-c2ccnc(F)c2)cc1-c1ccoc1 [Example 9, 3-cyano-4-(2′-fluoro-4-(furan-3-yl)-2,4′-bipyridin-5-yloxy)-N-(thiazol-2-yl)benzenesulfonamide] fall in the same range of IC50: 51 to 100 nM for the first, 51 to 100 nM for the second.

Cn1cc(-c2ccc(Oc3ccc(S(=O)(=O)Nc4nccs4)cc3C#N)c(-c3ccnn3C)n2)cn1 [Example 120, 3-cyano-4-((6-(1-methyl-1H-pyrazol-4-yl)-2-(1-methyl-1H-pyrazol-5-yl)pyridin-3-yl)oxy)-N-(thiazol-2-yl)benzenesulfonamide] and Cn1cc(-c2nc(-c3ccnc(F)c3)ccc2Oc2ccc(S(=O)(=O)Nc3nccs3)cc2C#N)cn1 [Example 125, 3-cyano-4-((2′-fluoro-6-(1-methyl-1H-pyrazol-4-yl)-[2,4′-bipyridin]-5-yl)oxy)-N-(thiazol-2-yl)benzenesulfonamide] cannot be ordered by IC50: > 100 nM for the first, > 100 nM for the second.

Going from N#Cc1cc(S(=O)(=O)Nc2nccs2)ccc1Oc1cnc(-c2ccccc2F)cc1-c1cccnc1 [Example 52, 3-cyano-4-((6′-(2-fluorophenyl)-[3,4′-bipyridin]-3′-yl)oxy)-N-(thiazol-2-yl)benzenesulfonamide] to N#Cc1cc(S(=O)(=O)Nc2nccs2)ccc1Oc1cnc(-c2cccc(F)c2)cc1-c1cccnc1 [Example 50, 3-cyano-4-((6′-(3-fluorophenyl)-[3,4′-bipyridin]-3′-yl)oxy)-N-(thiazol-2-yl)benzenesulfonamide], the IC50 falls from > 100 nM to < 50 nM. The second is the more potent here.

O=S(=O)(Nc1cscn1)c1cc(Cl)c(Oc2cnc(-c3ccnc(F)c3)cc2-c2cncnc2)cc1F [Example 77, 5-chloro-2-fluoro-4-((2′-fluoro-4-(pyrimidin-5-yl)-[2,4′-bipyridin]-5-yl)oxy)-N-(thiazol-4-yl)benzenesulfonamide] and O=S(=O)(Nc1cscn1)c1cc(Cl)c(Oc2cnc(-c3cccc(F)c3)cc2-c2cncnc2)cc1F [Example 76, 5-chloro-2-fluoro-4-((6-(3-fluorophenyl)-4-(pyrimidin-5-yl)pyridin-3-yl)oxy)-N-(thiazol-4-yl)benzenesulfonamide] cannot be ordered by IC50: > 100 nM for the first, > 100 nM for the second.

O=S(=O)(Nc1nccs1)c1ccc(C(O)c2ccc(Cl)cc2-c2ccncc2)c(F)c1 (stereo not shown) [Example 146, 4-((4-chloro-2-(pyridin-4-yl)phenyl)(hydroxy)methyl)-3-fluoro-N-(thiazol-2-yl)benzenesulfonamide] and O=S(=O)(Nc1nccs1)c1ccc(C(O)c2cccnc2-c2ccccc2)c(F)c1 (stereo not shown) [Example 157, 3-fluoro-4-(hydroxy(2-phenylpyridin-3-yl)methyl)-N-(thiazol-2-yl)benzenesulfonamide] cannot be ordered by IC50: > 100 nM for the first, > 100 nM for the second.

Compared with O=S(=O)(Nc1cscn1)c1cc(Cl)c(Oc2cnc(-c3cccc(F)c3)cc2-c2ccnc(N3CCOCC3)c2)cc1F [Example 101, 5-chloro-2-fluoro-4-((6-(3-fluorophenyl)-2′-morpholino-[4,4′-bipyridin]-3-yl)oxy)-N-(thiazol-4-yl)benzenesulfonamide], O=S(=O)(Nc1cscn1)c1cc(Cl)c(Oc2cnc(-c3cccnc3F)cc2-c2ccoc2)cc1F [Example 56, 5-chloro-2-fluoro-4-((2′-fluoro-4-(furan-3-yl)-[2,3′-bipyridin]-5-yl)oxy)-N-(thiazol-4-yl)benzenesulfonamide] is higher in IC50: 51 to 100 nM for the first, > 100 nM for the second.

N#Cc1cc(S(=O)(=O)Nc2cscn2)ccc1Oc1cnc(-c2cccc(F)c2)cc1-c1cncnc1 [Example 92, 3-cyano-4-((6-(3-fluorophenyl)-4-(pyrimidin-5-yl)pyridin-3-yl)oxy)-N-(thiazol-4-yl)benzenesulfonamide] and N#Cc1cc(S(=O)(=O)Nc2cscn2)ccc1Oc1cnc(-c2ccc(F)c(F)c2)cc1-c1cccnc1 [Example 85, 3-cyano-4-((6′-(3,4-difluorophenyl)-[3,4′-bipyridin]-3′-yl)oxy)-N-(thiazol-4-yl)benzenesulfonamide] cannot be ordered by IC50: > 100 nM for the first, > 100 nM for the second.

O=S(=O)(Nc1cscn1)c1cc(Cl)c(Oc2cnc(-c3ccccc3F)cc2-c2ccoc2)cc1F [Example 60, 5-chloro-2-fluoro-4-((6-(2-fluorophenyl)-4-(furan-3-yl)pyridin-3-yl)oxy)-N-(thiazol-4-yl)benzenesulfonamide] and Cn1cc(-c2cc(-c3ccc(F)nc3)ncc2Oc2cc(F)c(S(=O)(=O)Nc3cscn3)cc2Cl)cn1 [Example 70, 5-chloro-2-fluoro-4-((6′-fluoro-4-(1-methyl-1H-pyrazol-4-yl)-[2,3′-bipyridin]-5-yl)oxy)-N-(thiazol-4-yl)benzenesulfonamide 2,2,2-trifluoroacetate] cannot be ordered by IC50: > 100 nM for the first, > 100 nM for the second.

First: N#Cc1cc(S(=O)(=O)Nc2nccs2)ccc1Oc1ccc(-c2ccc(F)nc2)nc1-c1ccoc1 [Example 104, 3-cyano-4-((6′-fluoro-6-(furan-3-yl)-[2,3′-bipyridin]-5-yl)oxy)-N-(thiazol-2-yl)benzenesulfonamide]
Second: N#Cc1cc(S(=O)(=O)Nc2nccs2)ccc1Oc1cnc(-c2ccsc2)cc1-c1ccoc1 [Example 20, 3-cyano-4-((4-(furan-3-yl)-6-(thiophen-3-yl)pyridin-3-yl)oxy)-N-(thiazol-2-yl)benzenesulfonamide]
The IC50 of the first is lower: 51 to 100 nM for the first, > 100 nM for the second.

Going from N#Cc1cc(S(=O)(=O)Nc2nccs2)ccc1Oc1cnc(-c2cccnc2)cc1-c1ccoc1 [Example 13, 3-cyano-4-(4-(furan-3-yl)-2,3′-bipyridin-5-yloxy)-N-(thiazol-2-yl)benzenesulfonamide] to N#Cc1cc(S(=O)(=O)Nc2nccs2)ccc1Oc1cnc(-c2ccoc2)cc1-c1ccoc1 [Example 16, 3-cyano-4-((4,6-di(furan-3-yl)pyridin-3-yl)oxy)-N-(thiazol-2-yl)benzenesulfonamide], the IC50 falls from > 100 nM to < 50 nM.

First: Cn1nccc1-c1cc(-c2ccoc2)ncc1Oc1ccc(S(=O)(=O)Nc2nccs2)cc1C#N [Example 25, 3-cyano-4-((6-(furan-3-yl)-4-(1-methyl-1H-pyrazol-5-yl)pyridin-3-yl)oxy)-N-(thiazol-2-yl)benzenesulfonamide]
Second: Cn1nccc1-c1cc(-c2ccsc2)ncc1Oc1ccc(S(=O)(=O)Nc2nccs2)cc1F [Example 22, 3-fluoro-4-((4-(1-methyl-1H-pyrazol-5-yl)-6-(thiophen-3-yl)pyridin-3-yl)oxy)-N-(thiazol-2-yl)benzenesulfonamide]
The IC50 of the first is higher: > 100 nM for the first, 51 to 100 nM for the second.

First: N#Cc1cc(S(=O)(=O)Nc2ncns2)ccc1Oc1cnc(-c2ccccc2)cc1-c1ccoc1 [Example 3, 3-cyano-4-(4-(furan-3-yl)-6-phenylpyridin-3-yloxy)-N-(1,2,4-thiadiazol-5-yl)benzenesulfonamide]
Second: Cn1nccc1-c1cc(-c2ccccc2)ncc1Oc1ccc(S(=O)(=O)Nc2ncns2)cc1C#N [Example 4, 3-cyano-4-((4-(1-methyl-1H-pyrazol-5-yl)-6-phenylpyridin-3-yl)oxy)-N-(1,2,4-thiadiazol-5-yl)benzenesulfonamide]
The IC50 of the first is lower: < 50 nM for the first, 51 to 100 nM for the second.

Cn1cc(-c2cc(-c3ccccc3)ncc2Oc2ccc(S(=O)(=O)Nc3nccs3)cc2C#N)cn1 [Example 38, 3-cyano-4-((4-(1-methyl-1H-pyrazol-4-yl)-6-phenylpyridin-3-yl)oxy)-N-(thiazol-2-yl)benzenesulfonamide] and N#Cc1cc(S(=O)(=O)Nc2nccs2)ccc1Oc1cnc(-c2ccccc2)cc1-c1ccnc(Cl)c1Cl [Example 36, 3-cyano-4-((2′,3′-dichloro-6-phenyl-[4,4′-bipyridin]-3-yl)oxy)-N-(thiazol-2-yl)benzenesulfonamide] cannot be ordered by IC50: > 100 nM for the first, > 100 nM for the second.

N#Cc1cc(S(=O)(=O)Nc2nccs2)ccc1Oc1cnc(-c2ccccc2)cc1-c1csc(C2CC2)n1 [Example 43, 3-cyano-4-((4-(2-cyclopropylthiazol-4-yl)-6-phenylpyridin-3-yl)oxy)-N-(thiazol-2-yl)benzenesulfonamide] and O=S(=O)(Nc1nccs1)c1ccc(Oc2cnc(-c3ccoc3)cc2-c2ccoc2)cc1 [Example 28, 4-((4,6-di(furan-3-yl)pyridin-3-yl)oxy)-N-(thiazol-2-yl)benzenesulfonamide] cannot be ordered by IC50: > 100 nM for the first, > 100 nM for the second.

O=S(=O)(Nc1nccs1)c1ccc(C(O)c2ccc(-c3cccnc3F)cc2-c2ccoc2)cc1 (stereo not shown) [Example 150, 4-((4-(2-fluoropyridin-3-yl)-2-(furan-3-yl)phenyl)(hydroxy)methyl)-N-(thiazol-2-yl)benzenesulfonamide] and O=S(=O)(Nc1nccs1)c1ccc(C(O)c2cccnc2-c2ccoc2)c(F)c1 (stereo not shown) [Example 155, 3-fluoro-4-((2-(furan-3-yl)pyridin-3-yl)(hydroxy)methyl)-N-(thiazol-2-yl)benzenesulfonamide] cannot be ordered by IC50: > 100 nM for the first, > 100 nM for the second.
